Test results published in patent US20190328763A1, “A LIPID NANOPARTICLE FOR CARRYING ANTISENSE OLIGONUCLEOTIDES INHIBITING BCL-2 AND METHOD FOR PREPARING THE SAME” (NANJING LUYE PHARMACEUTICAL CO., LTD., priority 2016, published 2019).
Like-named read-outs stand apart in the source and are kept apart here. d = 2'-deoxy (DNA); m = 2'-O-methyl

Columns and labels:
Format in all cases: cell-based
bcl-2 messenger RNA [1] = assay: Gene level (Bcl-2) G3139 regulation experiment, Real-Time-PCR, KB cancer cells; settings: for Ratio (bcl-2/β-actin): 1 μM G3139, 4 h incubation then 48 h culture, control group 100%
Description: (§1) (1) We will place cancer cells, such as A549 cells, KB cells, and LNCaP prostate cancer cells in 6-well plates and make the cells grow in an RPMI1640 culture solution containing 10% fetal calf serum to allow the cells to grow overnight to achieve a plating rate of 80%.
(§2) (3) After incubation in an environment of 37 degrees and 5% CO2 for 4 h, the cells will be transferred to a fresh culture solution and the culture will last for 48 h. Cells were collected, lysed, and extracted RNA according to standard methods.
(§3) (4) We will analyze the levels of bcl-2 messenger RNA in each group with the Real-Time-PCR technology, and we can finally quantify the expression of bcl-2 after treatment in each group according to the standard methods of reagent suppliers.
By designing different sample groups, we regulate the levels of bcl-2 in KB cells.

bcl-2 messenger RNA [2] = assay: Gene level (Bcl-2) G3139 regulation experiment, Real-Time-PCR, A549 lung cancer cells; settings: for Ratio (bcl-2/β-actin): 1 μM G3139, 4 h incubation then 48 h culture, control group 100%
Description: as §1, §2, §3

bcl-2 messenger RNA [3] = assay: Gene level (Bcl-2) G3139 regulation experiment, Real-Time-PCR, LNCaP prostate cancer cells; settings: for Ratio (bcl-2/β-actin): 1 μM G3139, 4 h incubation then 48 h culture, control group 100%
Description: as §1, §2, §3

A549 cells = assay: A549 lung cancer cytotoxicity test (MTS); settings: Homo sapiens, paclitaxel 1 nmol/L-100 μmol/L, antisense oligonucleotide fixed 10 μmol/L
Description: (1) We placed A549 cells in 96-well plates, and made the cells grow in an RPMI1640 culture solution containing 10% fetal calf serum to allow the cells to grow overnight to achieve a plating rate of 60-70%.
(2) A toxicity test of multiple paclitaxel (PTX) concentration gradients (1 nmol/L-100 μmol/L) and antisense oligonucleotide concentrations (10 μmol/L) in each group was conducted with each concentration group on the second day, and each concentration group was incubated in a 37 degree and 5% CO2 environment.
(3) 20 ul of MTS reagent (a novel tetrazole compound) was added at different time points 24 h, 48 h, and 72 h, and the detection was performed at a wavelength of 490 nm and the results were as shown in the following table: […]

Molecule | Ratio (bcl-2/β-actin) (bcl-2 messenger RNA [1]) [%] | Ratio (bcl-2/β-actin) (bcl-2 messenger RNA [2]) [%] | Ratio (bcl-2/β-actin) (bcl-2 messenger RNA [3]) [%] | gene-level down-regulation of bcl-2 (bcl-2 messenger RNA [1]; 1 μM G3139) [%] | gene-level down-regulation of bcl-2 (bcl-2 messenger RNA [2]; 1 μM G3139) [%] | gene-level down-regulation of bcl-2 (bcl-2 messenger RNA [3]; 1 μM G3139) [%] | IC50 (A549 cells; 24 h, read-out: IC50 after 24 h) [nM] | IC50 (A549 cells; 48 h, read-out: IC50 after 48 h) [nM] | IC50 (A549 cells; 72 h, read-out: IC50 after 72 h) [nM]
5′-TCT CCC AGC GTG CGC CAT-3′ (antisense TCTCCCAGCGTGCGCCAT; DNA, all phosphorothioate, methylation of C not given here) [free G3139] | 95.31 | 88.75 | 93.15 |  |  |  |  |  | 
5′-UCU CCC AGC GTG CGC CAU-3′ (antisense UCUCCCAGCGTGCGCCAU; sugars from the 5' end m3 d12 m3, all phosphorothioate, methylation of C not given here) [free 2′-O-Me modified G3139] | 89.04 | 93.29 | 94.89 | 10.96 | 6.71 | 5.11 |  |  | 
CC(=O)O[C@H]1C(=O)[C@@]2(C)[C@H]([C@H](OC(=O)c3ccccc3)[C@]3(O)C[C@H](OC(=O)[C@H](O)[C@@H](NC(=O)c4ccccc4)c4ccccc4)C(C)=C1C3(C)C)[C@]1(OC(C)=O)CO[C@@H]1C[C@@H]2O [Paclitaxel (PTX) alone, Paclitaxel] |  |  |  |  |  |  | 75.6 | 28.5 | 17.9
